The text below walks through data of ChEMBL document CHEMBL3046927, “Synthesis and herbicidal activity of novel 5-chloro-3-fluoro-2-phenoxypyridines with a 1,3,4-oxadiazole ring” (J Pestic Sci, 2011).

In one data set the test system is Triticum aestivum. The data set can be described thus: Phytotoxicity against Triticum aestivum (wheat) plants assessed as crop damage at 125 g ai/ha measured after 3 weeks post compound treatment. The class given is organism-based. The conditions noted are these: in vivo, 504 h.
The next data set deals with Avena fatua. The data set can be described thus: Post-emergence herbicidal activity against Avena fatua at 125 g ai/ha measured after 3 weeks post compound treatment. It is filed as functional.
The next data set deals with Sorghum halepense. The data set can be described thus: Post-emergence herbicidal activity against Sorghum halepense (Johnson grass) at 125 g ai/ha measured after 3 weeks post compound treatment. The class given is functional.
In another data set the test system is Hordeum vulgare. The data set can be described thus: Phytotoxicity against Hordeum vulgare (barley) plants assessed as crop damage at 125 g ai/ha measured after 3 weeks post compound treatment. The class given is organism-based. The conditions noted are these: in vivo, 504 h.
The subject of a further data set is Echinochloa crus-galli. The data set can be described thus: Post-emergence herbicidal activity against Echinochloa crus-galli (barnyard grass) at 125 g ai/ha measured after 3 weeks post compound treatment. It is filed as functional.

Turning to `C[C@@H](Oc1ccc(Oc2ncc(Cl)cc2F)cc1)c1nnc(SCc2ccccc2)o1`, the Activity with Triticum aestivum amounted to 0%; with Avena fatua, 25%; in the data set on Sorghum halepense, 20%; in the data set on Hordeum vulgare it was 0%; in the data set on Echinochloa crus-galli, 35%.

With `C[C@@H](Oc1ccc(Oc2ncc(Cl)cc2F)cc1)c1nnc(SCc2ccc(Cl)nc2)o1`, the Activity with Triticum aestivum came out at 0%; in the data set with Avena fatua it was 30%; in the data set with Sorghum halepense, 30%; with Hordeum vulgare it was 0%; with Echinochloa crus-galli, 40%.

For `C[C@@H](Oc1ccc(Oc2ncc(Cl)cc2F)cc1)c1nnc(SC(=O)c2ccccc2)o1`, the Activity with Triticum aestivum is reported as 0%; in the data set with Avena fatua, 35%; in the data set on Sorghum halepense, 40%; in the data set on Hordeum vulgare, 0%; in the data set with Echinochloa crus-galli, 55%.

Turning to `CCOC(=O)Sc1nnc([C@@H](C)Oc2ccc(Oc3ncc(Cl)cc3F)cc2)o1`, the Activity is 0% with Triticum aestivum; 45% with Avena fatua; 40% in the data set on Sorghum halepense; 0% with Hordeum vulgare; 60% in the data set with Echinochloa crus-galli.

`CC(Sc1nnc([C@@H](C)Oc2ccc(Oc3ncc(Cl)cc3F)cc2)o1)C(=O)O` (stereo not given in full): the Activity in the data set on Triticum aestivum is 0%; with Avena fatua, 70%; with Sorghum halepense, 60%; with Hordeum vulgare, 15%; with Echinochloa crus-galli, 70%.

As for `C[C@@H](Oc1ccc(Oc2ncc(Cl)cc2F)cc1)c1nnc(SCC(=O)O)o1`, the Activity is reported as 0% in the data set on Triticum aestivum; 50% with Avena fatua; 45% with Sorghum halepense; 15% with Hordeum vulgare; 60% with Echinochloa crus-galli.

For `CSc1nnc([C@@H](C)Oc2ccc(Oc3ncc(Cl)cc3F)cc2)o1`, the Activity in the data set with Triticum aestivum is given as 5%; in the data set on Avena fatua, 70%; in the data set on Sorghum halepense, 60%; with Hordeum vulgare, 15%; in the data set on Echinochloa crus-galli, 80%.

As to `CCSc1nnc([C@@H](C)Oc2ccc(Oc3ncc(Cl)cc3F)cc2)o1`, the Activity in the data set with Triticum aestivum is 5%; in the data set with Avena fatua, 75%; in the data set on Sorghum halepense it was 60%; in the data set with Hordeum vulgare, 15%; in the data set on Echinochloa crus-galli, 85%.

For the compound `CCCCSc1nnc([C@@H](C)Oc2ccc(Oc3ncc(Cl)cc3F)cc2)o1`, the Activity with Triticum aestivum was found to be 5%; with Avena fatua, 65%; in the data set on Sorghum halepense, 55%; in the data set on Hordeum vulgare it was 10%; with Echinochloa crus-galli it was 80%.

`CCCCCSc1nnc([C@@H](C)Oc2ccc(Oc3ncc(Cl)cc3F)cc2)o1`: the Activity with Triticum aestivum is given as 0%; in the data set on Avena fatua, 55%; with Sorghum halepense it was 50%; with Hordeum vulgare it was 5%; in the data set on Echinochloa crus-galli it was 70%.

`C[C@@H](Oc1ccc(Oc2ncc(Cl)cc2F)cc1)c1nnc(SCC(N)=O)o1`: the Activity with Triticum aestivum stood at 0%; with Avena fatua it was 40%; in the data set with Sorghum halepense, 40%; in the data set on Hordeum vulgare, 0%; with Echinochloa crus-galli it was 45%.

For the compound `CC(O)CSc1nnc([C@@H](C)Oc2ccc(Oc3ncc(Cl)cc3F)cc2)o1` (stereo not given in full), the Activity with Triticum aestivum stood at 0%; in the data set on Avena fatua it was 35%; with Sorghum halepense it was 30%; with Hordeum vulgare, 0%; in the data set with Echinochloa crus-galli it was 40%.

Consider `C#CCSc1nnc([C@@H](C)Oc2ccc(Oc3ncc(Cl)cc3F)cc2)o1`, for which the Activity in the data set with Triticum aestivum worked out at 0%; in the data set with Avena fatua, 95%; in the data set with Sorghum halepense, 80%; in the data set on Hordeum vulgare it was 0%; with Echinochloa crus-galli, 100%.

Consider `C#CCOC(=O)[C@@H](C)Oc1ccc(Oc2ncc(Cl)cc2F)cc1` [CLODINAFOP PROPARGYL], for which the Activity with Triticum aestivum is listed as 0%; with Avena fatua it was 85%; in the data set on Sorghum halepense it was 80%; in the data set on Hordeum vulgare, 35%; in the data set with Echinochloa crus-galli it was 100%.
